# Laboratory results published in publication PMC2704374, “A Multidrug ABC Transporter with a Taste for Salt” (PLoS ONE, 2009).
# Molecular target: T1, LmrCD (Lactococcus cremoris, UniProt A2RI37+A2RI38)
# T1 construct: gene lmrC
# Assay: malachite green ATPase assay
# Type: biochemical
# Conditions: 2 mM Mg-ATP; 0.05% DDM
# T1 sequence (A2RI38 entry or part of it): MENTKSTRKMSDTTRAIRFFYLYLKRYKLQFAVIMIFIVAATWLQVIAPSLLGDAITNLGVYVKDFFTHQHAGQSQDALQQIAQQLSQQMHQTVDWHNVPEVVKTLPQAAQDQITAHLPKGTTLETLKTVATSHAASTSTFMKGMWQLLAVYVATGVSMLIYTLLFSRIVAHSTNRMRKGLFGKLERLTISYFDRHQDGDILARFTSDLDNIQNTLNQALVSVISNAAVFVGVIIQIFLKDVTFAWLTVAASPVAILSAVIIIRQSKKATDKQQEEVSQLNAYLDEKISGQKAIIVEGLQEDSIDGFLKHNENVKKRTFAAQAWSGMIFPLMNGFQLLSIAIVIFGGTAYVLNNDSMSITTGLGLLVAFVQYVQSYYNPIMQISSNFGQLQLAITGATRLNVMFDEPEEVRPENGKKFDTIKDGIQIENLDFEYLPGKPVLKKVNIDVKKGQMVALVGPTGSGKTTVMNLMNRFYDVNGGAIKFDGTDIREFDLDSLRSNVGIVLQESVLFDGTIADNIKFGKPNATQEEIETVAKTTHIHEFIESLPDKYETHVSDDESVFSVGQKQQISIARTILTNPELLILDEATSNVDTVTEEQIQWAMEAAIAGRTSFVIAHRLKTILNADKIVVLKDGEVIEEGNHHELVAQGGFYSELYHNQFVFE
# T1 sequence (A2RI37 entry or part of it): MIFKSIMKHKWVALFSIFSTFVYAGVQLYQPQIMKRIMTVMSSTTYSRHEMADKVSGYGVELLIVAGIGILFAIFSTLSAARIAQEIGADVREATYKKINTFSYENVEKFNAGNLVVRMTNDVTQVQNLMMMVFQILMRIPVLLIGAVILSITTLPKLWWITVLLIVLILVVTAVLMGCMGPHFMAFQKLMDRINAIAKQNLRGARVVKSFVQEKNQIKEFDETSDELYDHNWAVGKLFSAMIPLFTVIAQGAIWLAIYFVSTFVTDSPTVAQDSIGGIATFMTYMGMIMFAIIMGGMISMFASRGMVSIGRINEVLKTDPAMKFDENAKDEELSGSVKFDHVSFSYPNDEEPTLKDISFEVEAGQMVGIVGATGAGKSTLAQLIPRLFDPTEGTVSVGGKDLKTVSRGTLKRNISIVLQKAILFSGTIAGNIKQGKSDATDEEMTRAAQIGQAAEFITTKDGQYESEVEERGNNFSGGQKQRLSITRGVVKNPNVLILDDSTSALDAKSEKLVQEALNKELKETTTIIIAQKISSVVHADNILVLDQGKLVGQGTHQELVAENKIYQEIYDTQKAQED
compound,measurement,value
Nc1ncnc2c1ncn2[C@@H]1O[C@H](COP(=O)(O)OP(=O)(O)OP(=O)(O)O)[C@@H](O)[C@H]1O [ATP],malachite green ATPase assay,the ATPase activity of the purified multidrug ABC transporter LmrCD from L. lactis
